Assay results as given in ChEMBL document CHEMBL4304796, “DPP1 Inhibitors: Exploring the Role of Water in the S2 Pocket of DPP1 with Substituted Pyrrolidines” (ACS Med Chem Lett, 2019).

Each compound was assayed against T1, Dipeptidyl peptidase 1 (Homo sapiens, UniProt P53634) (assay: Inhibition of recombinant human DPPI using H-Gly-Arg-AFC as substrate preincubated for 30 mins followed by substrate addition measured after 60 mins by fluorescence plate reader analysis).
T1 sequence (P53634 25-134 limits assumed): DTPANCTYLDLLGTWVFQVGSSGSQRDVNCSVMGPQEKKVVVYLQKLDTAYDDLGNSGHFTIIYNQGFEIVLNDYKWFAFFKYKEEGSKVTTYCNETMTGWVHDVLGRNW
T1 sequence (P53634 231-394 limits assumed): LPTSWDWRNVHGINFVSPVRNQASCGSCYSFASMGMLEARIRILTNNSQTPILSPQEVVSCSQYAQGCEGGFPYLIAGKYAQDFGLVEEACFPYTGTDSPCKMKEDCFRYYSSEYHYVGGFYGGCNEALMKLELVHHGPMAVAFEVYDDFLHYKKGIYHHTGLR
T1 sequence (P53634 395-463 limits assumed): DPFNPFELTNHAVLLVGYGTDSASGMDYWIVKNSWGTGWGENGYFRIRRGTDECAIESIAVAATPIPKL

Row | Structure (SMILES) | IC50
1 | N#Cc1ccc(-c2ccc(C[C@@H](C#N)NC(=O)[C@@H]3C[C@@H](F)CN3)cc2)cc1 | 631 nM
2 | CS[C@@H]1CN[C@H](C(=O)N[C@H](C#N)Cc2ccc(-c3ccc(C#N)cc3)cc2)C1 | 0.398 nM
3 | N#Cc1ccc(-c2ccc(C[C@@H](C#N)NC(=O)[C@@H]3CC(F)(F)CN3)cc2)cc1 | 79.4 nM
4 | N#Cc1ccc(-c2ccc(C[C@@H](C#N)NC(=O)[C@@H]3C[C@H](O)CN3)cc2)cc1 | 6.31 nM
5 | N#Cc1ccc(-c2ccc(C[C@@H](C#N)NC(=O)[C@@H]3C[C@H](F)CN3)cc2)cc1 | 1.58 nM
6 | N#Cc1ccc(-c2ccc(C[C@@H](C#N)NC(=O)[C@@H]3CCCN3)cc2)cc1 | 50.1 nM

The compounds below were run against T1, Dipeptidyl peptidase 1 (assay: Inhibition of recombinant human DPPI using H-Gly-Arg-AMC as substrate preincubated for 30 mins followed by substrate addition measured after 60 mins by fluorescence plate reader analysis).

Row | Structure (SMILES) | IC50
7 | N#C[C@H](Cc1ccc(-c2ccccc2)cc1)NC(=O)[C@@H]1C[C@@H](O)CN1 | 158 nM
8 | N#Cc1ccc(-c2ccc(C[C@@H](C#N)NC(=O)[C@@H]3C[C@@H](O)CN3)cc2)cc1 | 50.1 nM
